Results on one molecule are retold here after US20040077634A1, “Treatment of diseases characterized by excessive or insufficient cell death” (priority 2001, published 2004).

In test [1] the target is T1, apoptosome complex (Apaf-1 and caspase-9) (Homo sapiens, UniProt O14727+P55211).
T1 construct: Caspase-9 antibody precipitated practically all caspase-9 present in the cell extract; endogenous in cells; host or cells: cell extract
T1 sequence (O14727 1-1248): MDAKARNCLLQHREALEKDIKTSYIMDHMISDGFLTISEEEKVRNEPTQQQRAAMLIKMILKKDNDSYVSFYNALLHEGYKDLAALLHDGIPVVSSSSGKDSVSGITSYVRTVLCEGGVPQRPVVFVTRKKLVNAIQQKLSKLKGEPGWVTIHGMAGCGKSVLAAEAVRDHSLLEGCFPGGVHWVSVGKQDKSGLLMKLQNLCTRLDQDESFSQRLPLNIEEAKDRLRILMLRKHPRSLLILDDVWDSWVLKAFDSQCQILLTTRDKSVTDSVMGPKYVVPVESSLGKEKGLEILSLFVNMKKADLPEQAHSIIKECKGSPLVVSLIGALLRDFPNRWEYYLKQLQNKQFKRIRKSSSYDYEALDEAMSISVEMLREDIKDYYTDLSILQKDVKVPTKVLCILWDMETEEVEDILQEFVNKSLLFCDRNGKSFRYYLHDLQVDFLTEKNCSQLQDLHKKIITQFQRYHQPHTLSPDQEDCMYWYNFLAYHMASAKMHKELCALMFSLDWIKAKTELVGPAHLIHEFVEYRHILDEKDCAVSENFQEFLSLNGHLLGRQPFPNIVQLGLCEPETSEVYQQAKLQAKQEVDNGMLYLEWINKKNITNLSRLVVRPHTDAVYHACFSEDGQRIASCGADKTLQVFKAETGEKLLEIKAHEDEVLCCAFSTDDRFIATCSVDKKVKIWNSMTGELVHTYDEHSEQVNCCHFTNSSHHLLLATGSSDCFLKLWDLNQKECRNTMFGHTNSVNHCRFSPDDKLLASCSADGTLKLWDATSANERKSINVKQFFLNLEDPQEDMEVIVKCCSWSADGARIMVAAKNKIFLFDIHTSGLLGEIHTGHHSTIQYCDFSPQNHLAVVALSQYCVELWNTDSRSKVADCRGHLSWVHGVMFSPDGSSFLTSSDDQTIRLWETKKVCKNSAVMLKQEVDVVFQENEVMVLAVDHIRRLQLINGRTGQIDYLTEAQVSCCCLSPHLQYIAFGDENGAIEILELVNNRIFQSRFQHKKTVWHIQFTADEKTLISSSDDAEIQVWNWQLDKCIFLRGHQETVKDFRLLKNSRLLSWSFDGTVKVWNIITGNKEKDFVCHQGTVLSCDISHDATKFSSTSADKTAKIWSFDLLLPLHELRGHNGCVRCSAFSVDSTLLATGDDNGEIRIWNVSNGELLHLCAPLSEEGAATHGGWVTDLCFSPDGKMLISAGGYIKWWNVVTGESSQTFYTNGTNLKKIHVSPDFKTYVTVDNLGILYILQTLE
T1 sequence (P55211 1-416): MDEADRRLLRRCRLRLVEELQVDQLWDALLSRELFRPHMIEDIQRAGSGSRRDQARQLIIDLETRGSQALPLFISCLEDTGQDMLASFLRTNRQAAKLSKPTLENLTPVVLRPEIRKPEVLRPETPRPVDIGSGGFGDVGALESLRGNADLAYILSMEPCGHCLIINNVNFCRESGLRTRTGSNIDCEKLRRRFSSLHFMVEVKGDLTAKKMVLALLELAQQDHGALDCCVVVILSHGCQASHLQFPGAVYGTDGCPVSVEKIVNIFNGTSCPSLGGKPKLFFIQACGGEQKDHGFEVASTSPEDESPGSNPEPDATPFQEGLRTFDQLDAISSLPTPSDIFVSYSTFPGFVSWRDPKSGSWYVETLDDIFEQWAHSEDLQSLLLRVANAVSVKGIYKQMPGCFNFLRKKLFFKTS
Description: Apoptosome formation: co-immunoprecipitation of Apaf-1 with caspase-9 in cell extract. The class given is binding. To be noted: 100 μM. As for the experimental part:
Next, it was tested whether compound f interferes with the formation of apoptosome complex in response to Cc/dATP. Cell extracts were incubated with Cc/dATP in the presence or absence of 100 μM compound f or 1 μM zVAD-fmk for 1 hour prior to the immunoprecipitation (IP) of caspase-9. […] Hsp90, which has been proposed to associate with Apaf-1 and prevent oligomerization and caspase-9 recruitment, was not co-immunoprecipitated with caspase-9.

In test [2] the test system is caspase-3-like proteases in MCF-casp3 cells. Briefly: TNF-induced DEVDase activity in MCF-casp3 cells. The class given is cell-based. To be noted: TNF 5 ng/ml, 50 μM.
Description: The ability of compound f to inhibit cell death was examined in MCF-neo and MCF-casp3 cells. […] To analyse the mechanism of the action of compound f in alive cells, MCF-casp3 cells were treated with TNF (5 ng/ml) in the presence of 50 μM compound f and the activity of caspase-3-like proteases was measured by a DEVDase enzyme assay.
For a further test, the target named is T2, recombinant caspase-3 (Homo sapiens, UniProt P42574).
T2 sequence (P42574 29-175 limits assumed): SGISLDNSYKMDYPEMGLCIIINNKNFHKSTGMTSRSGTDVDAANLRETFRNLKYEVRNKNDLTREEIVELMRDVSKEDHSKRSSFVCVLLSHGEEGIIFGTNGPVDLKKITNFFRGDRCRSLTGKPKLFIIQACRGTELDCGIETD
T2 sequence (P42574 176-277 limits assumed): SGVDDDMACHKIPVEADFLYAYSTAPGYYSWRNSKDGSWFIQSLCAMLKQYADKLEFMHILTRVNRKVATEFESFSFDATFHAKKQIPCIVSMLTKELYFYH
Briefly: Recombinant caspase-3 activity, cleavage of DEVD-AFC. The conditions noted are these: 25 to 100 μM; DEVD-AFC substrate. The class given is biochemical. As for the experimental part:
To test if compounds a, f, and g were specific caspase inhibitors, recombinant caspase-3 and caspase-9 were incubated with the three compounds and the enzymatic activities of caspases were monitored by analysing the cleavage of the caspase-3 substrate DEVD-AFC or the caspase-9 substrate LEHD-AFC, respectively.

Test [3] relates to DEVDase (caspase-3-like protease). Description: Inhibition of DEVDase in cytochrome c/dATP-activated Hela cytosolic extract (method 1). The format is biochemical. As for the experimental part: Hela cells are grown in large petri dishes until subconfluency. Cells are then harvested and washed in PBS. The cell pellet is resuspended in equal volumes of ice-cold isotonic lysisbuffer (SCA; 20 mM Hepes-KOH pH 7.5, 10 mM KCl, 1.5 mM MgCl2, 1 mM EDTA, 1 mM EGTA, 250 mM sucrose, 1 mM DTT, 10 μg/ml aprotinin, 1 μg/ml leupeptin, 1 μg/ml pepstatin A, 100 μg/ml peta-block), incubated on ice for 30 min and lysed by approx. 30 strokes of a dounce homogenizer. The lysate is then centrifuged at 750 g for 10 min, and the supernatant thereof at 10,000 g for 10 min and at 20,000 g for 30 min. The clarified supernatant is removed carefully and stored in aliquots at −80° C. Activation of endogene caspases is induced by addition of 1 mM dATP and 1 μM horse heart cytochrome c to cytosolic extract (protein concentration; 5-10 mg/ml) in the presence of DEVD-AFC and the compound (final concentration 100 μM). Activated DEVD'ases (AFC release) is measured by fluorometry in 96-well plates at 37° C. After end measurements 2× LSB-Mechaptoethanol are added to the samples for assessment of caspase processing by immunoblot analysis. Percent inhibition is calculated as follows: [formula]

For orientation: % Inhibition means the relative decrease from the control value, in per cent. With `O=C(Nc1cccc(C(F)(F)F)c1)Nc1cc(Cl)ccc1C(=O)O` [Compound f, [N-(2-Carboxy-5-chlorophenyl)-N′-(3-trifluoromethylphenyl)]urea], in test [1], the “ability of the caspase-9 antibody to precipitate caspase-9” value is “no effect”. Also, the “co-immunoprecipitation of Apaf-1 and caspase-9” value in test [1] (1 hour with Cc/dATP prior to IP of caspase-9) was “significantly inhibited”. The “TNF-induced DEVDase activity” value in test [2] was “significantly reduced”. In addition, the “inhibition of recombinant caspase-3 activity” value at recombinant caspase-3 was “failed to inhibit”. Moreover, in test [3] (cell extracts stimulated with Cc/dATP), the “inhibition of the DEVDase activity (dose dependence)” value is “dose-dependent inhibition”. The “% Inhibition” value in test [3] (compound final concentration 100 μM, 1 mM dATP and 1 μM cytochrome c, DEVD-AFC) is reported as 94%.
